In data set [1] the target is T1, HER2 kinase (Homo sapiens, UniProt P04626).
T1 construct: purchased Carna Biosciences 08-016
Kind of data set: HER2 kinase assay (ULight/PT66 TR-FRET). The format is biochemical. As for the experimental part:
(§1) Preparation of compound solution: The assay compound was dissolved in DMSO to form a 10 mM stock solution. Prior to use, the compound was diluted to 0.25 mM in DMSO (100 times the final concentration of the diluent) and then subjected to a 3-fold concentration gradient dilution to obtain a total of 11 concentrations. The solution was diluted with buffer to a diluent with 4× the final concentration when the compound was added.
(§2) HER2 kinase assay: buffer was prepared, and 40 nM 4×Her2 kinase solution, 40 μM 4×ATP solution, and 400 nM 4×ULight™-labeled Ploy GT Peptide substrate solution were prepared using the buffer. After the preparation was completed, the enzyme was mixed with different concentrations of compounds pre-prepared by dilution, and the mixture was left to stand at room temperature for 5 min. Each concentration was performed in duplicate. The corresponding substrate and ATP were added and the mixture was reacted at room temperature for 120 minutes (with negative and positive controls). After completion of the reaction, PT66 detection antibody was added. The mixture was incubated at room temperature for 60 minutes, and then detected by Envision.
(§3) Compound concentrations and corresponding inhibition rates were input into GraphPad Prism for processing to calculate IC50 values.
(In general: In TR-FRET formats the signal depends on donor and acceptor labels being close together.)

In data set [2] the target is Ba/F3 HER2 A775_G776insYVMA cells (Homo sapiens, UniProt P04626, DUP772-775, cells depend on it). As to the kind of experiment: Inhibition of cell proliferation, CTG method, Ba/F3 HER2 A775_G776insYVMA. The format is cell-based. Particulars: 72 hours, read-out: Ba/F3 HER2 A775-G776insYVMA IC50. The source says:
The present application examined the in vitro anti-proliferative activity of the compounds of the present disclosure against in vitro cultured BT474, NCI-N87, Ba/F3-EGFR-VIII and Ba/F3 HER2 A775_G776insYVMA and Ba/F3 EGFR D770_N771insSVD cell lines by CTG method.
Cell lines: BT474 (from the cell bank of Chinese Academy of Sciences), NCI-N87 (from ATCC), Ba/F3-EGFR-VIII, Ba/F3 HER2 A775_G776insYVMA and Ba/F3 EGFR D770_N771insSVD (all from KYinno Biotechnology (Beijing) Co., Ltd.); all of the above cells were cultured with RPMI1640 medium containing 10% fetal bovine serum, 100 U/mL penicillin, and 100 μg/mL streptomycin in the culture process.
1. The assay compound was dissolved with DMSO to form a stock solution and a gradient dilution was performed, followed by dilution with the corresponding medium to obtain a solution with 5-fold working concentration.
2. Cells in logarithmic growth phase were adjusted to specific cell densities by dilution with culture medium, and 80 μL of cell suspension was added to a 96-well plate, such that plating densities of cells of BT474, NCI-N87, Ba/F3-EGFR-VIII, Ba/F3 HER2 A775_G776insYVMA and Ba/F3 EGFR D770_N771insSVD were all 3000 cells/well. The cells of Ba/F3-EGFR-VIII, Ba/F3 HER2 A775_G776insYVMA and Ba/F3 EGFR D770_N771insSVD were used directly in the next step (treatment with compound), whereas the BT474 and NCI-N87 needed to be cultured overnight in a 37° C., 5% carbon dioxide gas incubator to adhere to the wall, and then treated with compounds.
3. […] The highest concentration of the assayed compound was 10 μM, 4-fold serial dilution, a total of 9 concentrations, and duplicate wells. A control group without compound was also set up.
4. The cells were cultured for another 72 hours, and then cell viability was detected by CTG assay kit. Signal values were read with a multifunctional plate reader (Perkin Elmer). GraphPad Prism software was used to create a dose-response curve and IC50 was calculated.

Data set [3] has as its target EGFR^WT kinase (Homo sapiens, UniProt P00533). Kind of data set: EGFR^WT kinase assay (ULight/PT66 TR-FRET). In kind it is biochemical. As for the experimental part: as §1
as §2, with “EGFR^WT kinase assay:” for “HER2 kinase assay:”, “prepared, and 3.48 nM 4×EGFR” for “prepared, and 40 nM 4×Her2”, “3.48 nM 4×EGFR kinase solution,” for “40 nM 4×Her2 kinase solution,”, “kinase solution, 600 μM 4×ATP” for “kinase solution, 40 μM 4×ATP”, “nM 4×ULight™-labeled JAK-1 (Try1023) Peptide substrate” for “nM 4×ULight™-labeled Ploy GT Peptide substrate”
as §3

A short description of data set [4]: Pharmacokinetics in SD rats, single intravenous injection and oral administration. In kind it is in vivo, SD rat. As for the experimental part: In this assay, the pharmacokinetic characteristics of the compounds of the present application were assayed after administration of some of the compounds of the present application to SD rats by single oral administration and intravenous injection. 1. […] The mixture was stirred, vortexed and/or sonicated. Once a solution was obtained, the vehicle was gradually added to a final volume to reach the target concentration. The solution was vortexed, and sonicated to obtain a homogeneous solution. The solution was filtered through a 0.22 μm PVDF membrane. 2. […] The mixture was stirred, vortexed and/or sonicated. Once a solution was obtained, the vehicle was gradually added to a final volume to reach the target concentration. The solution was vortexed, and sonicated to obtain a homogeneous solution. […] Meanwhile, the IV group was not fasted and the PO group was fasted overnight (>12 hrs) and given food 2 hrs after drug administration. All animals had free access to water. The dosing regimen and pharmacokinetic sampling regimen are given in Table 6 and Table 7 below, respectively. […] Rats were administered according to the above regimen, and blood and brain tissue samples were collected and processed at predetermined time points (collection and processing were performed according to conventional methods in the art). […] The supernatant was diluted 2-fold with ultra-pure water, and the samples were analyzed by LC/MS. Pharmacokinetic parameters was calculated using WinNonlin software. The following pharmacokinetic parameters was calculated from the plasma drug concentration-time data: CL (clearance); Vd (apparent volume of distribution); T1/2 (elimination half-life time); Cmax (peak concentration); Tmax (time to peak); AUC (area under plasma drug concentration-time curve); MRT (mean retention time); F % (bioavailability).

Setting [5] is: SD, rat, whole blood, IV 3 mg/kg.

T1 sequence (P04626 23-1255): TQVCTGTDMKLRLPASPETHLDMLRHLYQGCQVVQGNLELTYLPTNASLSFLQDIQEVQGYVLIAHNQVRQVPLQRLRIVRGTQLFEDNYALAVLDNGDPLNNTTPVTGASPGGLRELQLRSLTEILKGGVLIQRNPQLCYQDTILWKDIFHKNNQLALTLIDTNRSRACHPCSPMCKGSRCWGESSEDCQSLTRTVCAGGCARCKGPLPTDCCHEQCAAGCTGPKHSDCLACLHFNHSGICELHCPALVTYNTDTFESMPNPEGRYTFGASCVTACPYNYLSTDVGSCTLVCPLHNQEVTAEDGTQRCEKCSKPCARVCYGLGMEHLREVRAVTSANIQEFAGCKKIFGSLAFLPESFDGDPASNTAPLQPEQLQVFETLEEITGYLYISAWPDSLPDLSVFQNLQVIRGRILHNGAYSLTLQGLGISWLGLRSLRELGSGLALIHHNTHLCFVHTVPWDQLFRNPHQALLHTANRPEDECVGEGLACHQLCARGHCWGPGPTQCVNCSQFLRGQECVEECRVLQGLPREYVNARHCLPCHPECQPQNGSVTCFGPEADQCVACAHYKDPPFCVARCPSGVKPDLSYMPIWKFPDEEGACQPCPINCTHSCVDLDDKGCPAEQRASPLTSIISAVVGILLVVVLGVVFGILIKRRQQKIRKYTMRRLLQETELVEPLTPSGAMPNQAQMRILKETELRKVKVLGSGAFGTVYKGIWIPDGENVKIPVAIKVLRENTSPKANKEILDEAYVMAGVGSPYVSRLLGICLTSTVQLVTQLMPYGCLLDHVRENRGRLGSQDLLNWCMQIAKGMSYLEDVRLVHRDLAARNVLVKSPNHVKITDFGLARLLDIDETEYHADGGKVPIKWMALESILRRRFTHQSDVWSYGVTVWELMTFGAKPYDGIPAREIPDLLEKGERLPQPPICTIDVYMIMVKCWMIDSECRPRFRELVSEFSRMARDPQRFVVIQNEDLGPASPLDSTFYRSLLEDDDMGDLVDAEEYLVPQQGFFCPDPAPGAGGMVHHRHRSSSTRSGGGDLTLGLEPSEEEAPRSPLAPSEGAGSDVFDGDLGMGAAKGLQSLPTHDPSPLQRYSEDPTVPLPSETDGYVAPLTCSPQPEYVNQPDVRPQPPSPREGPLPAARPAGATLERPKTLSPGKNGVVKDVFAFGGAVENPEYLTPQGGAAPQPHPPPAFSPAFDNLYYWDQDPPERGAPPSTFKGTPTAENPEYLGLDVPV
Chain of Ba/F3 HER2 A775_G776insYVMA cells (P04626 with tags, fused parts or gaps DUP772-775): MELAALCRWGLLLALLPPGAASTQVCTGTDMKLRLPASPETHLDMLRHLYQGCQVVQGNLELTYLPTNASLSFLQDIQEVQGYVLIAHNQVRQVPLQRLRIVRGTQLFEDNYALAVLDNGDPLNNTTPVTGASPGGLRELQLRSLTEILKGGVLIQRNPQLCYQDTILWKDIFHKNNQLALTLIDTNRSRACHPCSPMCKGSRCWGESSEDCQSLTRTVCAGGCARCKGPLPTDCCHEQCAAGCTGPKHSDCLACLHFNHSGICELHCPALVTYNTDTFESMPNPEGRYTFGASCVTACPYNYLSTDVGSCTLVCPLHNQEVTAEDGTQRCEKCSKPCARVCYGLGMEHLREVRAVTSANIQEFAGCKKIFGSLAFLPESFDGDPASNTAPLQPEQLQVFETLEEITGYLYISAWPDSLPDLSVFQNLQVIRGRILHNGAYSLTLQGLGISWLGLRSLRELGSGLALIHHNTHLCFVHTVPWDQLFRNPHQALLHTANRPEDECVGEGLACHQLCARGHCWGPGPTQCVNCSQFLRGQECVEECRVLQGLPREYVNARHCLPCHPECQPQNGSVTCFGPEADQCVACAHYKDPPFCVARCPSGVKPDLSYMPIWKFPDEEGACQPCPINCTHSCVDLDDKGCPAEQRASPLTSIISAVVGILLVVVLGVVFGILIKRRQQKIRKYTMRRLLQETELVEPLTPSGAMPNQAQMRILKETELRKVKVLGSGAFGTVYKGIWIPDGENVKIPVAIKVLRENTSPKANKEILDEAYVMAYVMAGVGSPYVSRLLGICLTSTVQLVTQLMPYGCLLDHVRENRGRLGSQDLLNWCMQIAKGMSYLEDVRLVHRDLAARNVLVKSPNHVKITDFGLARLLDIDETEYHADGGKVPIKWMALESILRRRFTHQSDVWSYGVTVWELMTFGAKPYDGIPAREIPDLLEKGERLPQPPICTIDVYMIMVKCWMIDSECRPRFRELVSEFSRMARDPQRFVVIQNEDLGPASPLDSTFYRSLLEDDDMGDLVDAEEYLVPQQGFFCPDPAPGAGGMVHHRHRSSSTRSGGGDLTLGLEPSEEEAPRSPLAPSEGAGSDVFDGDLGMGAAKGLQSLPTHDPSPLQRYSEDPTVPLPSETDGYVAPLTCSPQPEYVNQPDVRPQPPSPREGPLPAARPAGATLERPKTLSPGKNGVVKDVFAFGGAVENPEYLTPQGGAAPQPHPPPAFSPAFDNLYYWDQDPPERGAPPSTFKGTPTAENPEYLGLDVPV
Chain of EGFR^WT kinase (P00533 25-1210): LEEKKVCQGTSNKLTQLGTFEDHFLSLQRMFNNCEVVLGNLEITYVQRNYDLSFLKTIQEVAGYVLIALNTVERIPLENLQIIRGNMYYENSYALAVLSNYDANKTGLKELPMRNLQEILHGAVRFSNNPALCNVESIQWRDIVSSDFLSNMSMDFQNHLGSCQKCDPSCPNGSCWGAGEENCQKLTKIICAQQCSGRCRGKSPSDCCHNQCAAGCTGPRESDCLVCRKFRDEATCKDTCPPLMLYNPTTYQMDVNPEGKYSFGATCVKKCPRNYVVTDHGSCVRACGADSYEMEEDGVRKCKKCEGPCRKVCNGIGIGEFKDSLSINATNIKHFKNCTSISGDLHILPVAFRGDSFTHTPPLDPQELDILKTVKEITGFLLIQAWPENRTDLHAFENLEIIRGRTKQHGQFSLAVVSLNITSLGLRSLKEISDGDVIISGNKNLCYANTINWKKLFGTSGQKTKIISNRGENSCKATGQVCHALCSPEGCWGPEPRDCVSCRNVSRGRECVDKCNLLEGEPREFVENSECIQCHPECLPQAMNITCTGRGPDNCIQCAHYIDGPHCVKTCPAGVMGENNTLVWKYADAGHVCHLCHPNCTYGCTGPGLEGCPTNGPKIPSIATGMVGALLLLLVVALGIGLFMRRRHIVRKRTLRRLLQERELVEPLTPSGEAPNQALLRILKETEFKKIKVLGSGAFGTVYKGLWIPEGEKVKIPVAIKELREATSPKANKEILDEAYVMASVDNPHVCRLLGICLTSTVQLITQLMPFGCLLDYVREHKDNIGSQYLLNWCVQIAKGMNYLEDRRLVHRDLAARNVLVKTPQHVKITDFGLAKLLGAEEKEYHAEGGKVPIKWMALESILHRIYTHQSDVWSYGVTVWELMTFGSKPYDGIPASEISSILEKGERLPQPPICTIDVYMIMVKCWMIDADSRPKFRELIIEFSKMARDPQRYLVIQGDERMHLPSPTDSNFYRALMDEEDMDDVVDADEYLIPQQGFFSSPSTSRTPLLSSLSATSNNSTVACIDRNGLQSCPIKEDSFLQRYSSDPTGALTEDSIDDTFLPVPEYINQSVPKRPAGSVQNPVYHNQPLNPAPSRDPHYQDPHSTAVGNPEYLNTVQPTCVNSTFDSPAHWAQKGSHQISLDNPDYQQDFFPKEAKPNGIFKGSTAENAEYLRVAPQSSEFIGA

As a reminder, the IC50 is the concentration at which inhibition is half-maximal. A low value points to inhibition by little substance. For `COc1c(NC(=O)/C=C/CN2CCCCC2)ccc2ncnc(Nc3ccc(OCc4ccccn4)c(Cl)c3)c12` [Example 44, (E)-N-(4-((3-chloro-4-(pyridin-2-ylmethoxy)phenyl)amino)-5-methoxyquinazolin-6-yl)-4-(piperidin-1-yl)but-2-enamide], the IC50 in data set [1] is below 10 nM.
In the case of `COc1c(NC(=O)/C=C/[C@H]2CCCN2C)ccc2ncnc(Nc3ccc(OCc4ccccn4)c(F)c3)c12` [Example 30, (R,E)-N-(4-((3-fluoro-4-(pyridin-2-ylmethoxy)phenyl)amino)-5-methoxyquinazolin-6-yl)-3-(1-methylpyrrolidin-2-yl)acrylamide], the GI50 in data set [2] lay in the range of 1 to 5 nM. Besides, the IC50 in data set [1] and in data set [3] was below 10 nM throughout.
On to `COCCCCOc1c(NC(=O)/C=C/[C@H]2CCCN2C)ccc2ncnc(Nc3ccc(OCc4ccccn4)c(Cl)c3)c12` [Example 23, (R,E)-N-(4-((3-chloro-4-(pyridin-2-ylmethoxy)phenyl)amino)-5-(4-methoxybutoxy)quinazolin-6-yl)-3-(1-methylpyrrolidin-2-yl)acrylamide], for which, in data set [2], the GI50 fell in the range of 1 to 5 nM. Besides, the IC50 is below 10 nM in data set [1] and 100 to 1000 nM in data set [3].
The corresponding values for `COc1c(NC(=O)/C=C/[C@H]2CCCN2C(C)C)ccc2ncnc(Nc3ccc(OCc4cccc(F)c4)c(Cl)c3)c12` [Example 18, (R,E)-N-(4-((3-chloro-4-(3-fluorobenzyloxy)phenyl)amino)-5-methoxyquinazolin-6-yl)-3-(1-isopropylpyrrolidine-2-yl)acrylamide] are 1 to 5 nM, below 10 nM and below 10 nM.
The corresponding values for `CN1CCC[C@@H]1/C=C/C(=O)Nc1ccc2ncnc(Nc3ccc(OCc4ccccn4)c(Cl)c3)c2c1OCCC(C)(C)O` [Example 16, (R,E)-N-(4-((3-chloro-4-(pyridin-2-ylmethoxy)phenyl)amino)-5-(3-hydroxy-3-methylbutoxy)quinazolin-6-yl)-3-(1-methylpyrrolidin-2-yl)acrylamide] are 1 to 5 nM, below 10 nM and below 10 nM.
With `COCCN1CCC[C@@H]1/C=C/C(=O)Nc1ccc2ncnc(Nc3ccc(OCc4ccccn4)c(Cl)c3)c2c1OC` [Example 25, (R,E)-N-(4-((3-chloro-4-(pyridin-2-ylmethoxy)phenyl)amino)-5-methoxyquinazolin-6-yl)-3-(1-(2-methoxyethyl)pyrrolidin-2-yl)acrylamide], the GI50 in data set [2] was 1 to 5 nM. For the same compound, the IC50 in data set [1] is below 10 nM; in data set [3], 100 to 1000 nM.
The corresponding values for `CCOc1c(NC(=O)/C=C/[C@H]2CCCN2C)ccc2ncnc(Nc3ccc(OCc4cccc(C)n4)c(Cl)c3)c12` [Example 22, (R,E)-N-(4-((3-chloro-4-((6-methylpyridin-2-yl)methoxy)phenyl)amino)-5-ethoxyquinazolin-6-yl)-3-(1-methylpyrrolidin-2-yl)acrylamide] are 1 to 5 nM, below 10 nM and below 10 nM.
`[2H]C([2H])([2H])Oc1c(NC(=O)/C=C/[C@H]2CCCN2C(C)C)ccc2ncnc(Nc3ccc(OCc4ccccn4)c(Cl)c3)c12` [Example 35, (R,E)-N-(4-((3-chloro-4-(pyridin-2-ylmethoxy)phenyl)amino)-5-(methoxy-d3)quinazolin-6-yl)-3-(1-isopropylpyrrolidin-2-yl)acrylamide]: in data set [2], the GI50 lay within 1 to 5 nM. Moreover, the IC50 in data set [1] is below 10 nM; in data set [3], 10 to 100 nM.
The corresponding values for `CC(C)COc1c(NC(=O)/C=C/[C@H]2CCCN2C)ccc2ncnc(Nc3ccc(OCc4ccccn4)c(Cl)c3)c12` [Example 14, (R,E)-N-(4-((3-chloro-4-(pyridin-2-ylmethoxy)phenyl)amino)-5-isobutoxyquinazolin-6-yl)-3-(1-methylpyrrolidin-2-yl)acrylamide] are 1 to 5 nM, below 10 nM and below 10 nM.
A word on the AUC(0-inf): it is total exposure, with the tail of the curve extrapolated. Read a high AUC(0-inf) as more exposure. In general, AUC(0-t) refers to exposure summed from dosing to a finite time, without extrapolation to infinity. Low readings indicate less exposure, high ones more exposure. In general, half-life refers to the time in which the quantity being followed falls by half. The compound `CN1CCC[C@@H]1/C=C/C(=O)Nc1ccc2ncnc(Nc3ccc(OCc4ccccn4)c(Cl)c3)c2c1` [Control compound 1, reference compound] showed a Cl_obs in data set [4] (IV 3 mg/kg) of 72.7 ± 7.1 mL/min/kg. In data set [4] (setting [5]), this compound gave an AUC(0-inf) of 693 ± 72 ng·h/mL, an AUC(0-t) of 678 ± 74 ng·h/mL, a Vd of 31 ± 4.6 L/kg and a half-life of 4.91 ± 0.28 h. Also, in data set [4] (administrated orally), the “oral absorption (in words)” value is on record as “hardly absorbed”.
Regarding `CN1CCC[C@@H]1/C=C/C(=O)Nc1ccc2ncnc(Nc3ccc(OCc4ccccn4)c(Cl)c3)c2c1OC1CCC1` [Example 39, (R,E)-N-(4-((3-chloro-4-(pyridin-2-ylmethoxy)phenyl)amino)-5-cyclobutoxyquinazolin-6-yl)-3-(1-methylpyrrolidin-2-yl)acrylamide], the GI50 in data set [2] was in the range of 1 to 5 nM. Further, the IC50 in data set [1] and in data set [3] was below 10 nM in each case.
As for `CN1CCC[C@@H]1/C=C/C(=O)Nc1ccc2ncnc(Nc3ccc(OCc4cccc(F)c4)c(Cl)c3)c2c1OC1CC1` [Example 41, (R,E)-N-(4-((3-chloro-4-((3-fluorobenzyl)oxy)phenyl)amino)-5-cyclopropoxyquinazolin-6-yl)-3-(1-methylpyrrolidone-2-yl)acrylamide], the GI50 in data set [2] lay within 1 to 5 nM. For the same compound, the IC50 in data set [1] was below 10 nM.
`COc1c(NC(=O)/C=C/CN2CCCC2)ccc2ncnc(Nc3ccc(OCc4ccccn4)c(Cl)c3)c12` [Example 43, (E)-N-(4-((3-chloro-4-(pyridin-2-ylmethoxy)phenyl)amino)-5-methoxyquinazolin-6-yl)-4-(pyrrolidine-1-yl)but-2-enamide] gave an IC50 in data set [1] below 10 nM.
Take `COc1c(NC(=O)/C=C/[C@H]2CCCN2C2CCC2)ccc2ncnc(Nc3ccc(OCc4ccccn4)c(Cl)c3)c12` [Example 42, (R,E)-N-(4-((3-chloro-4-(pyridin-2-ylmethoxy)phenyl)amino)-5-methoxyquinazolin-6-yl)-3-(1-cyclobutylpyrrolidin-2-yl)acrylamide]: the IC50 in data set [1] was below 10 nM; in data set [3], 100 to 1000 nM.

The values above are taken from patent US20240246934A1, “QUINAZOLINE-BASED COMPOUND, COMPOSITION, AND APPLICATION OF QUINAZOLINE-BASED COMPOUND” (BEIJING SCITECH-MQ PHARMACEUTICALS LIMITED, priority 2021, published 2024).
